ChEMBL document CHEMBL4004785, “Spiro Meroterpenoids from Ganoderma applanatum” (J Nat Prod, 2017)

Target: T1, Tyrosine-protein kinase JAK3 (Homo sapiens, UniProt P52333)
T1 sequence (P52333 whole entry): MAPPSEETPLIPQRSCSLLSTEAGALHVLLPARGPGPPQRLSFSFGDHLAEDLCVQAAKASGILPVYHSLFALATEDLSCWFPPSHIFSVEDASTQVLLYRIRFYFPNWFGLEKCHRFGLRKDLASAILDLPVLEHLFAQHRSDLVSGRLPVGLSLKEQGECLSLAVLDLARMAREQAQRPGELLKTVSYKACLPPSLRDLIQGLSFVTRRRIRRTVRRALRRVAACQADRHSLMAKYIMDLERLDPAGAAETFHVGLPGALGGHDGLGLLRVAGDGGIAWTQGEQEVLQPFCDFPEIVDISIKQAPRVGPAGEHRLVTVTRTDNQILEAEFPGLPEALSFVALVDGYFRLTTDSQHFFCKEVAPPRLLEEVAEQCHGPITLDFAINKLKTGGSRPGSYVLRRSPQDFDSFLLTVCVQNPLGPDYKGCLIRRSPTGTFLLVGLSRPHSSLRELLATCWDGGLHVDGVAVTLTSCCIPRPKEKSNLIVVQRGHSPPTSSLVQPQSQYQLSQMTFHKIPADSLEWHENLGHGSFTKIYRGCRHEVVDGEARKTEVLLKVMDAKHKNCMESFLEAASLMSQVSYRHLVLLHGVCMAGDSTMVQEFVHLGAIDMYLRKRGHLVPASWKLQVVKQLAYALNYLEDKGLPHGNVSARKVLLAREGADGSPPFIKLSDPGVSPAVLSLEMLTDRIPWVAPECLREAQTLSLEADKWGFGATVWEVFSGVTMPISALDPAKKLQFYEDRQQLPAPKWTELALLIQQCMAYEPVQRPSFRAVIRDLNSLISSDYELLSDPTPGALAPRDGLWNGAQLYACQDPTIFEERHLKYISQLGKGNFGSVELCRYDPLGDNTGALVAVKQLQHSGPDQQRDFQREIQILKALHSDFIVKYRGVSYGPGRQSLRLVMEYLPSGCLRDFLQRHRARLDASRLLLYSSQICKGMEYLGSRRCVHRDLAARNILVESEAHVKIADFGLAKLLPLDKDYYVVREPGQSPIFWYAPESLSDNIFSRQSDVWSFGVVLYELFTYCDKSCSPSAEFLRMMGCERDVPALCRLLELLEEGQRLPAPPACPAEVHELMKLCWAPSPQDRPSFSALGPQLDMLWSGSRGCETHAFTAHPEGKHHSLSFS
Test: Inhibition of human recombinant GST-tagged JAK3 cytoplasmic domain (781 to 1124 residues) expressed in baculovirus expression system incubated for 1 hr by FRET-based Z'-Lyte assay

IC50 [µM]	Structure (SMILES)
34.8	O=CC1=CCC[C@@H](C(=O)O)[C@@]2(C1)Oc1ccc(O)cc1C2=O
7	O=CC1=CCC[C@@H](C(=O)O)[C@]2(C1)Oc1ccc(O)cc1C2=O
